# Data as given in patent US20240358681A1, “METHODS OF USE OF PPAR AGONIST COMPOUNDS AND PHARMACEUTICAL COMPOSITIONS THEREOF” (Mitobridge, Inc., priority 2021, published 2024).
# Entries after “also recorded” stand apart in the source; their conditions may differ.
# Legend:
# LHON/Leigh cells = test: Mitochondrial fatty acid oxidation assay by high-resolution respirometry (palmitate-mediated OXPHOS); type: cell-based, human; details: Leigh/LHON cell line, 24 hours treatment; FIG. 4B
# Method: LHON/Leigh cells were treated with DMSO or Compound (I) in complete media supplemented with 0.5 mM carnitine for 24 hours prior to assaying. Treated cells were trypsinized, collected in Krebs-Henseleit Buffer (KHB) and pelleted.
# Palmitate-mediated OXPHOS was measured using an Oxygraph-2k (Oroboros Instruments). Cells (1×10^6) in KHB were loaded into each chamber with 250 μM BSA or BSA-conjugated palmitate. KHB was added to reach a final volume of 2 mL. Respiration was measured at 37° C. as previously described in Zhang, Z., et al., Primary respiratory chain disease causes tissue-specific dysregulation of the global transcriptome and nutrient-sensing signaling network. (1932-6203). Briefly, BSA and BSA-conjugated palmitate treated cells were analyzed simultaneously in two separate chambers. […]
# Data were analyzed using DatLab6 software. […] Non-mitochondrial respiration was measured after addition of Rotenone and Antimycin A sequentially (ROX, residual oxygen consumption, background) and subtracted from maximal respiration values. […]
# [1] = tested on: aged Diet-Induced Obese (DIO) C57BL/6NTac mice; test: Forced exhaustion running, activity and body composition in aged DIO mice; type: in vivo, mouse; details: 30 mg/kg
# Method: All animal studies were performed in accordance with Charles River Laboratories animal welfare protocols. Male Diet-Induced Obese (DIO) C57BL/6NTac mice 28 weeks of age were fed a high fat diet. 20 mice were randomized based on bodyweight into two cohorts of 10 mice each. Five mice were assigned to each treatment group in each cohort (i) vehicle or (ii) Compound (I) at 30 mg/kg via (n=10 total animals per treatment). Groups were dosed orally by gavage, once daily for 45 days at the start of the dark cycle. Mice were acclimatized to the treadmill room for one hour on days of training or endurance runs. After an initial 5 min exploration period the treadmill belt moved at 5 m/min for 10 min with the motivation grid intensity set to 0.46 mA. Mice required a few visits to the grid to learn to walk/run on the moving belt and avoid the electric grid shock. After two acclimatization periods the mice learned to avoid the electric grid and stay on the moving belt, with fewer visits to the electric grid. The maximum speed for the endurance run was capped at 16.5 m/min based on speed acclimation runs, which represents the speed at which 25% of animals are running in the top ⅔ of the treadmill at a 5° slope. The mice were considered exhausted if they stayed on the electric grid with no limbs on the treadmill belt for 10 seconds.
# Endurance was calculated as a Fatigue Index; this accounts for distance traveled, time on the treadmill, the number of breaks in running, and the length of those breaks. The cumulative number of stimulations for individual animals was plotted over time and the area under the curve (AUC) was calculated. AUC was divided by the distance individual animals completed during the course of the fatigue run to obtain the Fatigue Index. Voluntary activity is defined as the total number of X and Y axis laser beam breaks and rearing is defined as the total number of Z axis breaks per treatment group.
# [2] = 52-week monkey GLP toxicity study; type: in vivo
# [3] = 5 weeks, vs vehicle, FIG. 6D-6E
smiles,measurement,setting,value
"Cc1cnc(-c2ccc(C(F)(F)F)cc2)n1Cc1ccccc1OCCC[C@@H](C)CC(=O)O [Compound (I), (R)-3-Methyl-6-(2-((5-methyl-2-(4-(trifluoromethyl)phenyl)-1H-imidazol-1-yl)methyl)-phenoxy)hexanoic acid]",fatty acid-mediated OXPHOS,LHON/Leigh cells,significantly increased
same,rate of falls in the motivational grid,"[1]; 5 weeks, FIG. 5F",decrease
same,run distance,"[1]; 5 weeks, FIG. 5H",no change
same,Fatigue Index,"[1]; 5 weeks, vs vehicle, FIG. 5I",less fatigued
same,rearing,[1]; [3],trend towards increased
same,voluntary activity,[1]; [3],trend towards increased; also recorded: No statistically significant differences
same,body weight,"[1]; during the study, FIG. 6B",did not alter
same,body composition,"[1]; during the study, FIG. 6C",did not alter; also recorded: No statistically significant differences
same,no observed adverse effect level (NOAEL),[2],highest tested dose
